The results in this text go back to publication PMC12520456, “Regulating Enzyme Activity via Microaggregates Mediated by Phase Separation” (Advanced Science, 2025).

Series [1] can be described thus: Animal fluorescence imaging, tissue distribution and urine. Format: in vivo, rat. As to the method: To assess the fate of DPMD in vivo, rats were administered DPMD intraperitoneally and monitored using in vivo fluorescence imaging.
Figure S14. (A) The cell viability test of NIH-3T3 or HUVEC cells co-cultured with different concentrations DPMD.
(B) The apoptosis evaluation of NIH-3T3 or HUVEC co-cultured with DPMD, DPMD & Trypsin, DPMD & Chymotrypsin by flow cytometry. (C) Tissue distribution and quantification of DPMD in […] organs measured by IVIS (n=3/point). The fluorescence signal from the organs after DPMD intraperitoneal injection (1 ml, 0.5%) at 1h, 2-day, 3-day, 4-day, 5-day, 6-day, 7-day. (D) The evaluation of distribution DMPD in urine.
(1 picture or pasted object on this page, not shown here) […]
was performed using an Annexin V-Alexa Fluor 647/PI kit (Solarbio) according to the manufacturer’ s protocol. Briefly, adherent cells were detached with 0.25% EDTA-free trypsin, combined with floating cells from the supernatant. The pellet was washed twice with cold PBS and resuspended in 100 μL of 1× binding buffer. […] Samples were analyzed within 1h on a Sony MA900 flow cytometer.
3.12 Animal fluorescence imaging
Rats were intraperitoneally injected with 1 mL of rhodamine-labeled 0.5% (w/v) DPMD. […] The fluorescence emission intensity of the organs was measured using IVIS Spectrum system (PerkinElmer). […]

The subject of series [2] is HUVEC. Format: cell-based. The conditions noted are these: 48 h. As to the method:
(§1) and the product's absorbance at […] was dynamically and real-time monitored using a microplate […]
(§2) During the chymotrypsin activity assay, DPMD was incorporated into chymotrypsin. The final concentration of chymotrypsin was set at 10 μg/mL, and the final concentration of DPMD was 5 mg/mL. In the corresponding control group, an equal volume of the buffer solution prepared by the kit was added. Subsequently, the enzyme-peptide mixture was added to the reaction system containing the substrate N-Benzoyl-L-Tyrosine Ethyl Ester (BTEE) at a ratio of 1:100 (where the proportion of the enzyme-peptide mixture solution was 1) for the detection of enzyme activity. The reaction was carried out at 25 ℃, and the product's absorbance at 256 nm was dynamically and real-time monitored using a microplate reader. The experimental result was represented by the enzyme reaction's degree of completion. All the tests were repeated three independent times.
(§3) NIH-3T3 cells were obtained from the National Collection of Authenticated Cell Cultures. HUVECs were obtained from Procell. All cells were maintained in DMEM media at 37°C with 5% CO₂. […] Cell viability was evaluated by the CCK-8 assay (Dojindo) at 1-, 3-, 5-, and 7-days post-treatment. […] The absorbance at 450 nm was recorded using a microplate reader […]

The test system of series [3] is NIH-3T3 cells. It counts as cell-based. The conditions noted are these: 48 h. The protocol:
as §1, §2, §3

A short description of series [4]: Turbidity and CLSM phase separation of DPMD with trypsin/chymotrypsin. Format: physicochemical. The text has this: Next, these intriguing microaggregates were further investigated using fluorescence recovery after photobleaching (FRAP) experiments. […] To directly visualize the liquid–solid phase separation process, we performed time‐lapse confocal microscopy on mixtures of DPMD and trypsin/chymotrypsin. Initially, numerous small, spherical DPMD‐rich microdroplets appeared upon enzyme addition and gradually grew into larger droplets within minutes (Figure S5A, Supporting Information). […] We next examined whether the enzyme–peptide aggregates remain stable under varying physiological conditions, such as changes in pH and enzyme concentration.
Figure S5. (A) The CLSM images of DPMD with enzyme and DPMD without enzyme under different time. (B) Turbidity measurements result illustrating the phase separation of DPMD -treated trypsin and chymotrypsin at different concentrations or pH shifts . % represents the mass fraction of the DPMD/trypsin/chymotrypsin . (C) The CLSM images of DPMD with enzyme, DPMD without enzyme and DPMD with enzyme and aprotinin. (D&E) The CLSM images of DPMD with enzyme and DPMD without enzyme under different pH (D) or enzyme concentrations […]
(1 picture or pasted object on this page, not shown here)
0.22μm filter to remove residue. The calcium content of the supernatant was measured using the Calcium ion detection kit (Beyotime) according to the recommended method. […]
Peptide and enzyme solutions were prepared at varying concentrations and mixed at a 1:1 volume ratio. Solution turbidity was quantitatively assessed by monitoring absorbance at 405 nm using a BioTek spectrophotometer. For fluorescence-based characterization, peptides were labeled with FITC while enzymes were labeled with Cy5. […] For fluorescence recovery after photobleaching (FRAP) analysis, enzyme-aggregated patches were selectively bleached at 60% laser power using 488/640 nm lasers for 10 s, followed by time-lapse imaging at 1-min intervals. […] Fluorescence intensity in the photobleached region was measured using ImageJ software , with values normalized to pre-bleach baselines. […]

Each structure is given as a SMILES string. Non-standard residues stand in square brackets, D forms with d. Residues, ends and D or L forms follow the SMILES beside them.

For `CC[C@@H](C)[C@@H](NC(=O)[C@@H](CCC(N)=O)NC(=O)[C@H](NC(=O)[C@@H](Cc1ccc(O)cc1)NC(=O)CNC(=O)[C@@H](CC(C)C)NC(=O)[C@H](NC(=O)[C@@H](CO)NC(=O)CNC(=O)[C@@H](C)NC(=O)[C@@H](CC(=O)O)NC(=O)[C@@H](C)NC(=O)[C@@H](CCCNC(=N)N)NC(=O)[C@@H](C)NC(=O)[C@@H](CC(=O)O)NC(=O)[C@@H](C)NC(=O)[C@@H](CCCNC(=N)N)NC(=O)[C@@H](C)NC(=O)[C@@H](CC(=O)O)NC(=O)[C@@H](C)NC(=O)[C@@H](CCCNC(=N)N)NC(=O)[C@@H](C)NC(=O)[C@@H](CC(=O)O)NC(=O)[C@@H](C)NC(=O)[C@H](N)CCCNC(=N)N)C(C)C)[C@H](C)CC)C(=O)N[C@H](CCCNC(=N)N)C(=O)O` [DPMD, Ac‐(D‐RADA)4‐CONH2] (H-[dR][dA][dD][dA][dR][dA][dD][dA][dR][dA][dD][dA][dR][dA][dD][dA]G[dS][dV][dL]G[dY][dI][dQ][dI][dR]-OH; N-terminus and C-terminus assumed), in series [1] (1 mL rhodamine-labeled 0.5% (w/v) DPMD intraperitoneally, IVIS, day 6 post-injection, n=3/point), the “fluorescence intensity in organs (liver, kidneys, spleen)” value is listed as “barely detectable”. Also, the “fluorescence in urine samples” value in series [1] (labeled DPMD intraperitoneally, Figure S14D) is recorded as “fluorescence appeared in urine samples”. The cell viability in series [2] and in series [3] was greater than 90% throughout. Besides, in series [4] (absorbance at 405 nm, DPMD and trypsin/chymotrypsin mixtures 1:1 volume, across a range of pH levels and enzyme concentrations, Figure S5B), the “phase separation by turbidity” value was “robust phase separation”. Besides, the “phase separation with aprotinin-neutralized protease” value in series [4] (enzyme pre-incubated with aprotinin, CLSM, Figure S5C) is “no significant phase separation occurred”. Further, the “aggregate formation at shifted pH” value in series [4] (pH 5.6 and pH 8.4, mixtures with trypsin/chymotrypsin, Figure S5D) was “still became cloudy and formed microscopically visible droplets/aggregates”.
